For series [1], the system named is Enterobacter aerogenes (ATCC 13048). The series can be described thus: Minimum bactericidal concentration (MBC) assay. Format: cell-based. The method, then: (§1) The minimum bactericidal concentration assay was the same as the method used in Example 1.
(§2) Specifically, each type of bacteria was cultured in 3% (w/v) TSB (Tryptic Soy Broth) liquid medium at 37° C. and 200 rpm for 4 hours, and then further cultured under the same conditions for 3 hours to a concentration of 5×10^6 CFU/ml. Strain solutions were prepared by diluting each of the […] of 2×10^5 CFU/ml.
(§3) Then, the KU-5878 peptide at varying concentrations (0 μg/ml to 300 μg/ml) was dispensed into each well of a 96-well microplate, and 100 μl (1×10^5 CFU/ml) of each of the prepared strain solutions was added thereto, mixed therewith, and allowed to react with the peptide in an incubator at 37° C. for 1 hour.
(§4) In addition, 10 μl of each reaction solution of the peptide and the strain was plated on the TS agar plate at a constant size, and incubated in an incubator at 37° C. for 18 hours, and then colony formation on the plate was checked. The minimum bactericidal concentration was defined as the minimum concentration of the peptide at which no colony was formed, and the experimental results are shown in Table 2 below.

The test system of series [2] is Escherichia coli (ATCC 25922). The series can be described thus: Minimum bactericidal concentration (MBC) assay. Type of series: cell-based. The method, then: as §1, §2, §3, §4
Series [3] relates to Enterococcus faecalis (ATCC 19433). The series can be described thus: Minimum bactericidal concentration (MBC) assay. Format: cell-based. The method, then: as §1, §2, §3, §4
Series [4] deals with Streptomyces sindenensis (ATCC 12392). Briefly: Minimum bactericidal concentration (MBC) assay. Type of series: cell-based. The procedure:
as §1, §2, §3, §4

Series [5] relates to Enterococcus faecium (ATCC 19434). The series can be described thus: Minimum bactericidal concentration (MBC) assay. Format: cell-based. The method, then: as §1, §2, §3, §4
Series [6] relates to Acinetobacter baumannii (ATCC 19606). Briefly: Minimum bactericidal concentration (MBC) assay. Format: cell-based. The procedure: as §1, §2, §3, §4
Series [7] deals with Klebsiella pneumoniae (ATCC 13883). The series can be described thus: Minimum bactericidal concentration (MBC) assay. Format: cell-based. The method, then: as §1, §2, §3, §4
The subject of series [8] is Bacillus subtilis (ATCC 6633). Briefly: Minimum bactericidal concentration (MBC) assay. Format: cell-based. The method, then: as §1, §2, §3, §4
The subject of series [9] is methicillin-resistant Staphylococcus aureus (ATCC 33591). Particulars: for MBC MRSA: Tables 11-15, no unit printed.
The test system of series [10] is CRPA. The series can be described thus: MBC, evaluation of antibacterial activities of KU-5878 variants. Format: cell-based. The settings on record: Tables 11-15, no unit printed.
Series [11] has as its system mouse red blood cells. Format: cell-based. The method, then: Red blood cells were diluted with PBS, centrifuged 3 times at 900 g for 10 minutes, and washed. 100 μl of the diluted red blood cell solution (10% v/v PBS) was dispensed into each well of a 96-well microplate, and KU-5878, KU-5878-K4, KU-5878-K4-D, melittin, magainin 2 or daptomycin was added to each well which was then filled with PBS to 200 μl, followed by reaction by incubation at 37° C. for 1 hour. Then, the supernatant of the reaction solution was separated, and the absorbance at a wavelength of 550 nm was measured using a spectrophotometer. As control, PBS and 0.1% Triton X-100 (Triton X-100) solution were used.
Based on the results of measurement of the absorbance, the degree of red blood cell destruction was calculated according to Equation 1 below, and the results of the calculation are shown in FIG. 6. The % intact RBC=100(%)−[(absorbance of peptide-treated red blood cell solution−absorbance of PBS-treated red blood cell solution)/(absorbance of Triton X-100-treated red blood cell solution−absorbance of PBS-treated red blood cell solution)×100(%)] [Equation 1]

1 sequence from US12053506B2, “Romo1-derived antimicrobial peptides and variants thereof” (priority 2019, dated 2024) can be followed below.

Read-outs that look alike come from different tables or passages of the source. No end group written: not given here.

With KTMMQSGGTFGTFMAIGMGIR [KU-5878], in series [1], the “MBC value (μg/ml), Enterobacter aerogenes” value stood at 90 µg/mL. For the same sequence, the “MBC value (μg/ml), Escherichia coli” value in series [2] was 85 µg/mL. Further, the “MBC value (μg/ml), Enterococcus faecalis” value in series [3] turned out to be 85 µg/mL. Further, the “MBC value (μg/ml), Streptomyces sindenensis” value in series [4] stood at 95 µg/mL. For the same sequence, the “MBC value (μg/ml), Enterococcus faecium” value in series [5] amounted to 85 µg/mL. In series [6], the “MBC value (μg/ml), Acinetobacter baumannii” value stood at 100 µg/mL. Also, the “MBC value (μg/ml), Klebsiella pneumoniae” value in series [7] worked out at 100 µg/mL. Besides, the “MBC value (μg/ml), Bacillus subtilis” value in series [8] was found to be 90 µg/mL. Moreover, the “MBC value (μg/ml) against methicillin-resistant Staphylococcus aureus” value in series [9] (ATCC 33591, 4 h) was 100 µg/mL. Moreover, the values for the MBC MRSA in series [9] and in [9] (listed as 5878) were 110 µg/mL and 100 µg/mL, respectively. The sequence also registered an MBC CRPA in series [10] of 110 µg/mL. In [11], the “hemolysis of red blood cells” value was “little hemolysis even at a high concentration”.
